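1) Cells in 96-well plates. 2) Compound, 48 h, 5 concentrations. 3) Linear interpolation between surrounding doses. 4) Unreached endpoint = highest concentration. TGI denotes the concentration required for complete inhibition of growth.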
Tests used:
Assay in all cases: growth of human tumour cells (NCI), 48 h
HOP-92 NSCLC = system: HOP-92 NSCLC
SF-539 CNS = system: SF-539 CNS
UACC-62 melanoma = system: UACC-62 melanoma
MOLT-4 leukemia = system: MOLT-4 leukemia
UACC-257 melanoma = system: UACC-257 melanoma
SK-MEL-28 melanoma = system: SK-MEL-28 melanoma
CCRF-CEM leukemia = system: CCRF-CEM leukemia
U251 CNS = system: U251 CNS
HS 578T breast = system: HS 578T breast
T-47D breast = system: T-47D breast
OVCAR-4 ovarian = system: OVCAR-4 ovarian
SK-MEL-2 melanoma = system: SK-MEL-2 melanoma
MCF7 breast = system: MCF7 breast
DU-145 prostate = system: DU-145 prostate
COLO 205 colon = system: COLO 205 colon
TK-10 renal = system: TK-10 renal
OVCAR-3 ovarian = system: OVCAR-3 ovarian
LOX IMVI melanoma = system: LOX IMVI melanoma
EKVX NSCLC = system: EKVX NSCLC
HL-60(TB) leukemia = system: HL-60(TB) leukemia
ACHN renal = system: ACHN renal
M14 melanoma = system: M14 melanoma
HT29 colon = system: HT29 colon
UO-31 renal = system: UO-31 renal
SF-295 CNS = system: SF-295 CNS
HCT-116 colon = system: HCT-116 colon
MDA-MB-231 breast = system: MDA-MB-231 breast
A549 NSCLC = system: A549 NSCLC
NCI-H23 lung = system: NCI-H23 lung
A498 renal = system: A498 renal
RPMI-8226 leukemia = system: RPMI-8226 leukemia
SW-620 colon = system: SW-620 colon
CAKI-1 renal = system: CAKI-1 renal
SN12C renal = system: SN12C renal
SR leukemia = system: SR leukemia
BT-549 breast = system: BT-549 breast
NCI-H460 lung = system: NCI-H460 lung
NCI-H226 lung = system: NCI-H226 lung
MDA-MB-435 = system: MDA-MB-435
SK-MEL-5 melanoma = system: SK-MEL-5 melanoma
HOP-62 NSCLC = system: HOP-62 NSCLC
PC-3 prostate = system: PC-3 prostate
OVCAR-8 ovarian = system: OVCAR-8 ovarian
SNB-75 CNS = system: SNB-75 CNS
SF-268 CNS = system: SF-268 CNS
SK-OV-3 ovarian = system: SK-OV-3 ovarian
K-562 leukemia = system: K-562 leukemia
NCI-H522 lung = system: NCI-H522 lung
HCT-15 colon = system: HCT-15 colon
786-0 renal = system: 786-0 renal
KM12 colon = system: KM12 colon
RXF 393 renal = system: RXF 393 renal
OVCAR-5 ovarian = system: OVCAR-5 ovarian
HCC-2998 colon = system: HCC-2998 colon
NCI/ADR-RES ovarian = system: NCI/ADR-RES ovarian
MDA-N = system: MDA-N
SNB-19 CNS = system: SNB-19 CNS
IGROV1 ovarian = system: IGROV1 ovarian
MALME-3M melanoma = system: MALME-3M melanoma

Molecule `O=P1(N(CCCl)CCCl)Oc2ccc(Cl)cc2Sc2c(ccc(Cl)c2Cl)O1` (centres undefined) has a TGI (HOP-92 NSCLC) of 34.4 µM, a TGI (SF-539 CNS) greater than 100 µM and a TGI (UACC-62 melanoma) greater than 100 µM. The TGI (MOLT-4 leukemia) was greater than 100 µM, the TGI (UACC-257 melanoma) was greater than 100 µM and the TGI (SK-MEL-28 melanoma) was greater than 100 µM. The TGI (CCRF-CEM leukemia) was greater than 100 µM, the TGI (U251 CNS) was greater than 100 µM and the TGI (HS 578T breast) was 33.6 µM. The TGI (T-47D breast) was greater than 100 µM, the TGI (OVCAR-4 ovarian) was greater than 100 µM and the TGI (SK-MEL-2 melanoma) was 80.3 µM. It also gave a TGI (MCF7 breast) greater than 100 µM, a TGI (DU-145 prostate) greater than 100 µM and a TGI (COLO 205 colon) of 23 µM. The TGI (TK-10 renal) was greater than 100 µM, the TGI (OVCAR-3 ovarian) was greater than 100 µM and the TGI (LOX IMVI melanoma) was greater than 100 µM. For the same molecule, the TGI (EKVX NSCLC) was greater than 100 µM, the TGI (HL-60(TB) leukemia) was greater than 100 µM and the TGI (ACHN renal) was greater than 100 µM. The TGI (M14 melanoma) was greater than 100 µM, the TGI (HT29 colon) was greater than 100 µM and the TGI (UO-31 renal) was greater than 100 µM. It also gave a TGI (SF-295 CNS) greater than 100 µM, a TGI (HCT-116 colon) of 74.6 µM and a TGI (MDA-MB-231 breast) greater than 100 µM. The TGI (A549 NSCLC) was 77.1 µM, the TGI (NCI-H23 lung) was greater than 100 µM and the TGI (A498 renal) was greater than 100 µM. It also gave a TGI (RPMI-8226 leukemia) greater than 100 µM, a TGI (SW-620 colon) greater than 100 µM and a TGI (CAKI-1 renal) greater than 100 µM. The TGI (SN12C renal) was greater than 100 µM, the TGI (SR leukemia) was greater than 100 µM and the TGI (BT-549 breast) was greater than 100 µM. For the same molecule, the TGI (NCI-H460 lung) was 33.7 µM, the TGI (NCI-H226 lung) was 95 µM and the TGI (MDA-MB-435) was greater than 100 µM. It also gave a TGI (SK-MEL-5 melanoma) of 21.5 µM, a TGI (HOP-62 NSCLC) greater than 100 µM and a TGI (PC-3 prostate) greater than 100 µM. The TGI (OVCAR-8 ovarian) was greater than 100 µM, the TGI (SNB-75 CNS) was 67.3 µM and the TGI (SF-268 CNS) was greater than 100 µM. It also gave a TGI (SK-OV-3 ovarian) greater than 100 µM, a TGI (K-562 leukemia) greater than 100 µM and a TGI (NCI-H522 lung) greater than 100 µM. It also gave a TGI (HCT-15 colon) greater than 100 µM, a TGI (786-0 renal) greater than 100 µM and a TGI (KM12 colon) greater than 100 µM. It also gave a TGI (RXF 393 renal) of 43.9 µM, a TGI (OVCAR-5 ovarian) greater than 100 µM and a TGI (HCC-2998 colon) greater than 100 µM. For the same molecule, the TGI (NCI/ADR-RES ovarian) was greater than 100 µM and the TGI (MDA-N) was greater than 100 µM.

With `Nc1nc2ccc(NCc3ccc(C(=O)NC(CCC(=O)O)C(=O)O)cc3)cc2c(=O)[nH]1` (centres undefined) the TGI (HOP-92 NSCLC) was greater than 100 µM, the TGI (SF-539 CNS) was greater than 100 µM and the TGI (UACC-62 melanoma) was greater than 100 µM. For the same molecule, the TGI (MOLT-4 leukemia) was greater than 100 µM, the TGI (UACC-257 melanoma) was greater than 100 µM and the TGI (SK-MEL-28 melanoma) was greater than 100 µM. For the same molecule, the TGI (CCRF-CEM leukemia) was greater than 100 µM, the TGI (U251 CNS) was greater than 100 µM and the TGI (HS 578T breast) was greater than 100 µM. The TGI (T-47D breast) was greater than 100 µM, the TGI (OVCAR-4 ovarian) was greater than 100 µM and the TGI (SK-MEL-2 melanoma) was greater than 100 µM. It also gave a TGI (MCF7 breast) greater than 100 µM, a TGI (DU-145 prostate) greater than 100 µM and a TGI (COLO 205 colon) greater than 100 µM. It also gave a TGI (TK-10 renal) greater than 100 µM, a TGI (OVCAR-3 ovarian) greater than 100 µM and a TGI (SNB-19 CNS) greater than 100 µM. For the same molecule, the TGI (IGROV1 ovarian) was greater than 100 µM, the TGI (LOX IMVI melanoma) was greater than 100 µM and the TGI (EKVX NSCLC) was greater than 100 µM. The TGI (HL-60(TB) leukemia) was greater than 100 µM, the TGI (ACHN renal) was 39.9 µM and the TGI (M14 melanoma) was 87.5 µM. The TGI (HT29 colon) was greater than 100 µM, the TGI (UO-31 renal) was greater than 100 µM and the TGI (SF-295 CNS) was greater than 100 µM. For the same molecule, the TGI (HCT-116 colon) was greater than 100 µM, the TGI (MDA-MB-231 breast) was greater than 100 µM and the TGI (A549 NSCLC) was greater than 100 µM. The TGI (NCI-H23 lung) was greater than 100 µM, the TGI (RPMI-8226 leukemia) was greater than 100 µM and the TGI (SW-620 colon) was greater than 100 µM. It also gave a TGI (CAKI-1 renal) greater than 100 µM, a TGI (SN12C renal) greater than 100 µM and a TGI (SR leukemia) greater than 100 µM. For the same molecule, the TGI (BT-549 breast) was greater than 100 µM, the TGI (NCI-H460 lung) was greater than 100 µM and the TGI (NCI-H226 lung) was greater than 100 µM. For the same molecule, the TGI (MALME-3M melanoma) was greater than 100 µM, the TGI (MDA-MB-435) was greater than 100 µM and the TGI (SK-MEL-5 melanoma) was greater than 100 µM. For the same molecule, the TGI (HOP-62 NSCLC) was greater than 100 µM, the TGI (PC-3 prostate) was greater than 100 µM and the TGI (OVCAR-8 ovarian) was greater than 100 µM. The TGI (SNB-75 CNS) was greater than 100 µM, the TGI (SF-268 CNS) was greater than 100 µM and the TGI (SK-OV-3 ovarian) was greater than 100 µM. It also gave a TGI (K-562 leukemia) greater than 100 µM, a TGI (NCI-H522 lung) greater than 100 µM and a TGI (HCT-15 colon) greater than 100 µM. It also gave a TGI (786-0 renal) greater than 100 µM, a TGI (KM12 colon) greater than 100 µM and a TGI (RXF 393 renal) greater than 100 µM. For the same molecule, the TGI (OVCAR-5 ovarian) was greater than 100 µM, the TGI (HCC-2998 colon) was greater than 100 µM and the TGI (NCI/ADR-RES ovarian) was greater than 100 µM. The TGI (MDA-N) was greater than 100 µM.

Source: PubChem BioAssay (NCI)
